{"source": "patent US20200129495A1", "about": "(BioPharmX, Inc., priority 2018, published 2020)", "key": {"[1]": {"experiment": "Stability of ebastine in ethanol composition at 40° C.", "format": "physicochemical", "conditions": "over the tested period (2 months)"}, "male C57BL/6J mice [2]": {"test_system": "male C57BL/6J mice", "conditions": "topical 2.5 mg/cm^2 daily, 5 weeks; monitored throughout the study", "description": "The modified Draize test is an acute erythema test carried out as follows. A C57BL/6J mouse is shaved in an application area, and the application area allowed to rest for approximately 24 hours and then rinsed with non-irritating soap. A test composition is applied evenly, without significant rubbing, to a 12 cm^2 area of the mouse's skin in a volume of 2.5 mg/cm^2. The sample is allowed to sit uncovered for 24 hours. After 24 hours, the application area is washed gently with lx phosphate buffered saline (1×PBS) and non-irritating soap to facilitate observation of the application area. The application area is then scored according to the following scale: 0=no evidence of erythema; 1=minimal erythema, barely perceptible; 2=definite erythema, readily visible, minimal edema or minimal popular response; 3=erythema and papules; 4=definite edema; 5=erythema, edema, and papules; 6=vesicular eruption; 7=strong reaction spreading beyond test site.\nThe skin surface of the shaved patch was wiped clean with phosphate buffer saline (1×PBS). Mice were left to acclimate overnight. […]\nClinical signs such as behavior were monitored throughout the study. […] The patch area was assessed for signs of erythema using the modified Draize scoring system and dryness every other day throughout the study period."}, "[3]": {"text": "Addition of the solvent was repeated until the test material was completely dissolved, resulting in a visually clear solution."}, "male C57BL/6J mice [4]": {"test_system": "male C57BL/6J mice", "conditions": "2% (w/w) ebastine in ethanol/propylene glycol, topical 2.5 mg/cm^2 daily", "description": "Penetration into the skin was assessed in a sample size of three male mice.\nThe skin surface of the shaved patch was wiped clean with phosphate buffer saline (1×PBS). Mice were left to acclimate overnight.\nFor five weeks, the test composition was applied daily at a dose of 2.5 mg/cm^2 using a positive displacement pipette and carefully spread in the 12 cm^2 test area using a clean metal spatula.\nAt the end of the 5-week study period, 10 hairs from each site were plucked from the upper-middle, middle, and lower-middle patch area of each of the mice. In addition, 10 hairs were plucked from outside the patch area for each of the mice in the nontreatment group. The length of each of the plucked hairs was measured with a microcaliper and the resulting values were averaged.\nIn the study (as described supra), mice were shaved while in the telogen phase. Shaving stimulated hair growth by inducing the transition from rest (telogen phase) to growth (anagen phase). The shaved patch area for each mouse was observed daily for anagen onset, i.e., the first day of the anagen phase of the hair cycle."}, "[5]": {"experimental": "The pH of each suspension was determined using a pH meter (Orion Star A111, Thermo Scientific, Waltham, Mass.). Following, the pH of each suspension was adjusted with acid 1N HCl to the target pH. A 2 milliliter (mL) sample of the liquid portion of the mixture (supernatant) was removed from the top of each vial and spun in a micro-centrifuge (Eppendorf Minispin, Hamburg Germany) at 12,000 rpm for 2 minutes.\nA 10 microliter (μL) sample was injected into a high-performance liquid chromatography machine (HPLC) (Agilent, Santa Clara, Calif.). […] The HPLC system also used a guard column (Phenomenex, Inc.) and a mobile phase consisting of a base solvent of 70 percent (v/v) methanol (Spectrum Chemicals, Gardena, Calif.), and 30 percent (v/v) 40 mM potassium phosphate buffer, pH 4.0 (Spectrum Chemicals, Gardena, Calif.). The HPLC flow rate was 1 mL per minute with a column temperature of 40 degrees centigrade, a detection wavelength of 262 nanometers (nm), and a runtime of at least 15 minutes.", "remark": "listed apart in the source"}}, "note": "Where two headings read alike, the source gives them in different places.", "data": [{"smiles": "CC(C)(C)c1ccc(C(=O)CCCN2CCC(OC(c3ccccc3)c3ccccc3)CC2)cc1", "note": "[Ebastine, 1-[4-(1,1-dimethylethyl)phenyl]-4-[4-(diphenylmethoxy)-1-piperidinyl]-1-butanone]", "values": [{"measurement": "stability of ebastine in ethanol", "setting": "[1]", "value": "stable"}, {"measurement": "clinical signs: behavior", "setting": "male C57BL/6J mice [2]", "value": "No abnormal behavior"}, {"measurement": "EBASTINE SOLUBILITY AT ROOM TEMP", "setting": "[3]; Benzyl Benzoate", "value": ">45.0", "unit": "mg/g"}, {"measurement": "EBASTINE SOLUBILITY AT ROOM TEMP", "setting": "[3]; Diethyl Sebacate", "value": 120.6, "unit": "mg/g"}, {"measurement": "EBASTINE SOLUBILITY AT ROOM TEMP", "setting": "[3]; Diethylene Glycol Monoethyl Ether", "value": 33.9, "unit": "mg/g"}, {"measurement": "EBASTINE SOLUBILITY AT ROOM TEMP", "setting": "[3]; Dimethyl Succinate", "value": 0.47, "unit": "mg/g"}, {"measurement": "EBASTINE SOLUBILITY AT ROOM TEMP", "setting": "[3]; Ethyl Acetate", "value": 245.2, "unit": "mg/g"}, {"measurement": "EBASTINE SOLUBILITY AT ROOM TEMP", "setting": "[3]; Methylpyrrolidone", "value": ">23.1", "unit": "mg/g"}, {"measurement": "EBASTINE SOLUBILITY AT ROOM TEMP", "setting": "[3]; Triacetin", "value": "<1.1", "unit": "mg/g"}, {"measurement": "amount of ebastine soluble in 1 gram of diethyl sebacate", "setting": "[3]; in 1 gram of diethyl sebacate", "value": "approximately 120.6 mg"}, {"measurement": "time to significant anagen induction (average)", "setting": "male C57BL/6J mice [4]; mice shaved in telogen phase", "value": 10, "unit": "days"}, {"measurement": "total average patch coverage with hair", "setting": "male C57BL/6J mice [4]; study end, after 5 weeks", "value": "90 % of the total patch area"}, {"measurement": "solubility class in 9:1 ethanol:water", "setting": "[5]; pH range of from 2 to 6", "value": "soluble (solubility of 33.3 mg/g or greater)"}, {"measurement": "solubility class in 9:1 ethanol:water", "setting": "[5]; pH values above 6, such as 7 to 10", "value": "at least sparingly soluble (solubility of 10.0 mg/g or greater)"}, {"measurement": "Ebastine Solubility in 90:10 Ethanol:Water", "setting": "[5]; pH 2.3, room temperature", "value": "30.38 (mg/g)"}, {"measurement": "Ebastine Solubility in 90:10 Ethanol:Water", "setting": "[5]; pH 6.16, room temperature", "value": "33.35 (mg/g)"}, {"measurement": "Ebastine Solubility in 90:10 Ethanol:Water", "setting": "[5]; pH 7.76, room temperature", "value": "16.58 (mg/g)"}, {"measurement": "Ebastine Solubility in 90:10 Ethanol:Water", "setting": "[5]; pH 9.90, room temperature", "value": "15.3 (mg/g)"}, {"measurement": "solubility in ethanol and water mixture compared with ethanol alone or water alone", "setting": "[5]; pH less than about 7, such as 2.3 to 6.2", "value": "exceeded"}, {"measurement": "solubility of ebastine in water alone", "setting": "[5]; water alone, useful pH ranges", "value": "less than 2 mg/g"}, {"measurement": "Ebastine Solubility in water", "setting": "[5]; pH 3.04, room temperature", "value": "1.4 (mg/g)"}, {"measurement": "Ebastine Solubility in water", "setting": "[5]; pH 5.06, room temperature", "value": "0 (mg/g)"}, {"measurement": "Ebastine Solubility in water", "setting": "[5]; pH 6.91, room temperature", "value": "0 (mg/g)"}, {"measurement": "solubility class in water", "setting": "[5]; pH below 5.0, such as 3.0 to 5.0", "value": "slightly soluble (solubility of 1.0 to 10.0 mg/g)"}, {"measurement": "solubility class in water", "setting": "[5]; pH in the range of 5 to 7, room temperature", "value": "insoluble (solubility of less than 1.0 mg/g)"}, {"measurement": "solubility class in water", "setting": "[5]; pH values of 5 and above", "value": "insoluble (solubility of less than 1.0 mg/g)"}]}]}
